Measured values reported in PubChem BioAssay (NCI).
Where “and” joins values, the source holds several entries; their conditions need not be identical. Equal values may be shown once.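 Five concentrations, 48 hours, 96-well plates. GI50 marks 50% less growth. TGI is the concentration that stops growth completely.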

Key:
Test in all cases: growth of human tumour cells (NCI), 48 h
[1] = test system: NCI-H23 lung
[2] = test system: K-562 leukemia
[3] = test system: HCC-2998 colon
[4] = test system: HOP-92 NSCLC
[5] = test system: NCI-H522 lung
[6] = test system: OVCAR-8 ovarian
[7] = test system: SW-620 colon
[8] = test system: SK-MEL-5 melanoma
[9] = test system: T-47D breast
[10] = test system: LOX IMVI melanoma
[11] = test system: OVCAR-4 ovarian
[12] = test system: RXF 393 renal
[13] = test system: CAKI-1 renal
[14] = test system: SF-295 CNS
[15] = test system: SNB-19 CNS
[16] = test system: IGROV1 ovarian
[17] = test system: NCI-H226 lung
[18] = test system: SNB-75 CNS
[19] = test system: CCRF-CEM leukemia
[20] = test system: SF-539 CNS
[21] = test system: HOP-62 NSCLC
[22] = test system: A498 renal
[23] = test system: HCT-116 colon
[24] = test system: COLO 205 colon
[25] = test system: KM12 colon
[26] = test system: SR leukemia
[27] = test system: NCI-H460 lung
[28] = test system: PC-3 prostate
[29] = test system: A549 NSCLC
[30] = test system: DU-145 prostate
[31] = test system: MALME-3M melanoma
[32] = test system: MCF7 breast
[33] = test system: ACHN renal
[34] = test system: UACC-62 melanoma
[35] = test system: SK-OV-3 ovarian
[36] = test system: MDA-MB-435
[37] = test system: U251 CNS
[38] = test system: SF-268 CNS
[39] = test system: MOLT-4 leukemia
[40] = test system: TK-10 renal
[41] = test system: HCT-15 colon
[42] = test system: RPMI-8226 leukemia
[43] = test system: MDA-N
[44] = test system: SN12C renal
[45] = test system: 786-0 renal
[46] = test system: UO-31 renal
[47] = test system: HS 578T breast
[48] = test system: UACC-257 melanoma
[49] = test system: OVCAR-5 ovarian
[50] = test system: SK-MEL-28 melanoma
[51] = test system: SK-MEL-2 melanoma
[52] = test system: HT29 colon
[53] = test system: NCI/ADR-RES ovarian
[54] = test system: MDA-MB-231 breast
[55] = test system: HL-60(TB) leukemia
[56] = test system: M14 melanoma
[57] = test system: EKVX NSCLC
[58] = test system: OVCAR-3 ovarian
[59] = test system: BT-549 breast

CCN(CCCl)c1cc(CN(C)C)cc(NC(=O)c2cc(C(=O)Nc3cc(CN(C)C)cc(N(CC)CCCl)c3)n(C)n2)c1
TGI [1]: 3.04 µM | TGI [2]: 1.12 µM | TGI [3]: 2.11 µM | TGI [4]: 3.38 µM | TGI [5]: 0.384 µM | TGI [6]: 1.13 µM | TGI [7]: 0.304 µM | TGI [8]: 2.28 µM | TGI [9]: 6.43 µM | TGI [10]: 0.26 µM | TGI [11]: 2.8 µM | TGI [12]: 2.08 µM | TGI [13]: 2.72 µM | TGI [14]: 2.24 µM | TGI [15]: 1.24 µM | TGI [16]: 0.38 µM | TGI [17]: 4.16 µM | TGI [18]: 2.55 µM | TGI [19]: 0.299 µM | TGI [20]: 1.63 µM | TGI [21]: 1.21 µM | TGI [22]: 4.41 µM | TGI [23]: 1.3 µM | TGI [24]: 2.05 µM | TGI [25]: 0.703 µM | TGI [26]: > 100 µM | TGI [27]: 0.4 µM | TGI [28]: 0.492 µM | TGI [29]: 1.8 µM | TGI [30]: 9.19 µM | TGI [31]: 2.86 µM | TGI [32]: 1.38 µM | TGI [33]: 0.749 µM | TGI [34]: 2.36 µM | TGI [35]: 3.3 µM | TGI [36]: 1.2 µM | TGI [37]: 0.387 µM | TGI [38]: 1.56 µM | TGI [39]: 0.164 µM | TGI [40]: 6.17 µM | TGI [41]: 10.5 µM | TGI [42]: > 100 µM | TGI [43]: 2.55 µM | TGI [44]: 2.01 µM | TGI [45]: 0.261 µM | TGI [46]: 7.42 µM | TGI [47]: 1.52 µM | TGI [48]: 2.89 µM | TGI [49]: 9.36 µM | TGI [50]: 2.81 µM | TGI [51]: 3.3 µM | TGI [52]: 1.02 µM | TGI [53]: 32.3 µM | TGI [54]: 4.06 µM | TGI [55]: 4.04 µM | TGI [56]: 2.01 µM

CSc1nc(C)c(CCOC(C)=O)c(N=P(c2ccccc2)(c2ccccc2)c2ccccc2)n1
TGI [1]: > 10 µM | TGI [2]: > 10 µM | TGI [3]: > 10 µM | TGI [6]: > 10 µM | TGI [7]: > 10 µM | TGI [8]: > 10 µM | TGI [9]: > 10 µM | TGI [10]: > 10 µM | TGI [12]: > 10 µM | TGI [13]: > 10 µM | TGI [14]: > 10 µM | TGI [57]: > 10 µM | TGI [16]: > 10 µM | TGI [18]: > 10 µM | TGI [19]: > 10 µM | TGI [21]: > 10 µM | TGI [25]: > 10 µM | TGI [26]: 7.83 µM | TGI [28]: 9.37 µM | TGI [29]: > 10 µM | TGI [30]: > 10 µM | TGI [31]: > 10 µM | TGI [32]: > 10 µM | TGI [34]: > 10 µM | TGI [35]: > 10 µM | TGI [38]: > 10 µM | TGI [39]: 6.43 µM | TGI [40]: > 10 µM | TGI [41]: > 10 µM | TGI [42]: > 10 µM | TGI [43]: > 10 µM | TGI [44]: > 10 µM | TGI [45]: > 10 µM | TGI [48]: > 10 µM | TGI [50]: > 10 µM | TGI [52]: > 10 µM | TGI [54]: > 10 µM | TGI [55]: > 10 µM | TGI [56]: > 10 µM

COC(=O)C1(Cc2ccccc2)Cc2c(C)ccc(C)c2C1=O (stereo not drawn)
TGI [1]: > 100 µM | TGI [2]: > 100 µM | TGI [3]: 97.7 µM | TGI [4]: 54.3 µM | TGI [5]: 56.2 µM | TGI [6]: 52.1 µM | TGI [7]: > 100 µM | TGI [8]: 28.8 µM | TGI [9]: > 100 µM | TGI [10]: 34.6 µM | TGI [11]: > 100 µM | TGI [12]: 83.1 µM | TGI [14]: > 100 µM | TGI [57]: > 100 µM | TGI [15]: > 100 µM | TGI [16]: > 100 µM | TGI [17]: 97.3 µM | TGI [18]: 61.3 µM | TGI [19]: > 100 µM | TGI [20]: > 100 µM | TGI [21]: > 100 µM | TGI [22]: > 100 µM | TGI [23]: > 100 µM | TGI [24]: 25.4 µM | TGI [25]: 42.8 µM | TGI [26]: > 100 µM | TGI [27]: > 100 µM | TGI [28]: 78.2 µM | TGI [29]: 36.4 µM | TGI [30]: > 100 µM | TGI [31]: 50.3 µM | TGI [32]: 81.1 µM | TGI [33]: > 100 µM | TGI [34]: 54.8 µM | TGI [35]: > 100 µM | TGI [36]: 43.4 µM | TGI [37]: > 100 µM | TGI [38]: > 100 µM | TGI [39]: 57.5 µM | TGI [40]: > 100 µM | TGI [58]: 85.1 µM | TGI [41]: > 100 µM | TGI [42]: 75.4 µM | TGI [43]: > 100 µM | TGI [44]: > 100 µM | TGI [45]: > 100 µM | TGI [46]: 38 µM | TGI [47]: 62 µM | TGI [48]: 64.9 µM | TGI [49]: > 100 µM | TGI [50]: > 100 µM | TGI [52]: 69.8 µM | TGI [53]: > 100 µM | TGI [54]: 38.4 µM | TGI [55]: 54 µM | TGI [56]: 98.8 µM

CC(=O)Nc1cc(/C=C\C(=O)N2CC(CCl)c3c2cc(N)c2ccccc32)n(C)n1 (stereo not drawn)
TGI [1]: 0.0273 µM | TGI [2]: 0.0203 µM | TGI [3]: 0.0733 µM and 0.0826 µM | TGI [4]: > 100 µM | TGI [7]: > 100 µM | GI50 [59]: 0.0225 µM | GI50 [11]: 0.0216 µM | TGI [12]: > 100 µM | TGI [13]: 0.0223 µM | GI50 [14]: 0.0426 µM | GI50 [15]: 0.0277 µM | TGI [16]: > 100 µM | GI50 [17]: 0.0173 µM | TGI [18]: 0.0141 µM and 0.0459 µM | TGI [19]: 0.012 µM | TGI [20]: 0.0214 µM | TGI [22]: 0.0211 µM | TGI [24]: 0.0901 µM | TGI [28]: > 100 µM | TGI [30]: > 100 µM | TGI [32]: > 100 µM | TGI [34]: 0.0284 µM | GI50 [35]: 0.0311 µM | GI50 [36]: 0.0131 µM | TGI [36]: 0.0399 µM and 0.0497 µM | TGI [37]: 1.23 µM and 3.23 µM | TGI [38]: 0.211 µM | TGI [39]: 0.0357 µM | TGI [40]: > 100 µM | TGI [58]: > 100 µM | GI50 [41]: 0.0167 µM | TGI [41]: > 100 µM | TGI [42]: 0.0577 µM and 0.0242 µM | GI50 [43]: 0.0136 µM | TGI [43]: 0.0411 µM and 0.0435 µM | TGI [46]: 0.0214 µM | TGI [48]: 0.0394 µM | TGI [50]: 0.0382 µM and 0.177 µM | TGI [51]: 0.0416 µM and 0.0479 µM | GI50 [53]: 0.103 µM | TGI [55]: 0.0126 µM | GI50 [56]: 0.0138 µM
